Reference: patent US8637509B2, “Azaindazoles” (GlaxoSmithKline LLC, priority 2010, dated 2014)

The compounds below were run against T1, EZH2 (Homo sapiens, UniProt Q15910) (assay: EZH2 methyltransferase SPA assay (3H-SAM, Hela nucleosomes)). Details: not given.
T1 construct: GRITS37108
Type: biochemical

T1 sequence (Q15910 whole entry): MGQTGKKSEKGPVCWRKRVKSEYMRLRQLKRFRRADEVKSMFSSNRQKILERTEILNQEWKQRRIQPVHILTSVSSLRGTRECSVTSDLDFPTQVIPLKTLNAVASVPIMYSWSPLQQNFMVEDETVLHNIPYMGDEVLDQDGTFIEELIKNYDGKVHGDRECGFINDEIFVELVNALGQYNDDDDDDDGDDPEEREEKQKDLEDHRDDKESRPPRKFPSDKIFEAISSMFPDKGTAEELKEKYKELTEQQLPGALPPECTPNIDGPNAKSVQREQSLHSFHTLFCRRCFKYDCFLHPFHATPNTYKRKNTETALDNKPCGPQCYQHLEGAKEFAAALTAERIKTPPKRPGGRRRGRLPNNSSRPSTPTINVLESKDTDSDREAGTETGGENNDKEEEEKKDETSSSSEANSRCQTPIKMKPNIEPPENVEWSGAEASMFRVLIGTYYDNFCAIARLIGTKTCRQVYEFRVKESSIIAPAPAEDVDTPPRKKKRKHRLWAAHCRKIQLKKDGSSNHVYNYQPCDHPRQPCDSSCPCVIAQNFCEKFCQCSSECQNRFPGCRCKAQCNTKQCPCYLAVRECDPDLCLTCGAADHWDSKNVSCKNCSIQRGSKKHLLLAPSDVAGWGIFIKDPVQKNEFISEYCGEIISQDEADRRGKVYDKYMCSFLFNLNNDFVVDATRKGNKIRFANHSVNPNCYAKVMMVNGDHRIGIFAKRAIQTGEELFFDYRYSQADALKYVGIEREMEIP
T1 sequence (O75530 whole entry partner): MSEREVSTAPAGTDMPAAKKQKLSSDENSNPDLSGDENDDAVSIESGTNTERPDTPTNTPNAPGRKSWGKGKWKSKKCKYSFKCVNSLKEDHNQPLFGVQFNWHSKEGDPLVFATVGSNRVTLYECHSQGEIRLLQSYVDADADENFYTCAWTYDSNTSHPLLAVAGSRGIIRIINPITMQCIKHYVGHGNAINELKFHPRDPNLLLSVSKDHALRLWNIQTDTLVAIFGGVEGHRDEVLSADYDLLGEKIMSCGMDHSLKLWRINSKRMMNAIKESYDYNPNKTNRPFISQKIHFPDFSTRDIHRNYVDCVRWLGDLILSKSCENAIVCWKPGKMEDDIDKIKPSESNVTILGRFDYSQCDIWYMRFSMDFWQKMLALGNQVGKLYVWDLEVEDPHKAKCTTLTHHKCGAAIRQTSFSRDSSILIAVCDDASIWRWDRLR
T1 sequence (Q15022 whole entry partner): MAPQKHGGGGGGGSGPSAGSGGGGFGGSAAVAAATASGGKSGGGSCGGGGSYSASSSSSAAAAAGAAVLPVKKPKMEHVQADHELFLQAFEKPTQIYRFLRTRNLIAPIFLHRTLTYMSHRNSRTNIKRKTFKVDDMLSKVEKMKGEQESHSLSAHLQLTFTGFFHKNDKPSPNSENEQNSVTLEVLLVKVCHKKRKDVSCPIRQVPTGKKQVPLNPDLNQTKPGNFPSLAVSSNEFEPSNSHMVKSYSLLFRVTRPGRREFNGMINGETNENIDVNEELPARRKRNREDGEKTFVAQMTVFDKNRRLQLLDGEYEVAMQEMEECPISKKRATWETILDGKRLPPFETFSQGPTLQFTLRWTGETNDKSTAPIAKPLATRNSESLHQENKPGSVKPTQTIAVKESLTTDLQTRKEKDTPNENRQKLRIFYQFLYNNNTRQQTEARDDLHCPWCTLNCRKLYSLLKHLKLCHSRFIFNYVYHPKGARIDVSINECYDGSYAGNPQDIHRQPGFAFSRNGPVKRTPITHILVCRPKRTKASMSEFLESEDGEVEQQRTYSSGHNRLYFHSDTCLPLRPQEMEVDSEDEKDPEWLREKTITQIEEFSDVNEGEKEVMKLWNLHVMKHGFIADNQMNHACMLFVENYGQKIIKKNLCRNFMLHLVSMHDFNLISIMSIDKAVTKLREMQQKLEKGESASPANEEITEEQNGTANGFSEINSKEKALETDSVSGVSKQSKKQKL

**Q.** Cc1[nH]c(=O)c(CNC(=O)c2cc(-c3ccncc3)nc3c2cnn3C(C)C)c(C)c1F [Ex 20, N-[(5-Fluoro-4,6-dimethyl-2-oxo-1,2-dihydro-3-pyridinyl)methyl]-1-(1-methylethyl)-6-(4-pyridinyl]-1H-pyrazolo[3,4-b]pyridine-4-carboxamide] was tested. Which IC50 did it give?
**A.** The IC50 was 4650 nM.

Same assay, conditions: read-out: IC50

**Q.** For C=CCNc1cc(C(=O)NCc2c(C)cc(C)[nH]c2=O)c2cnn(C(C)C)c2n1 [Ex 5, N-[(4,6-Dimethyl-2-oxo-1,2-dihydro-3-pyridinyl)methyl]-1-(1-methylethyl)-6-(2-propen-1-ylamino)-1H-pyrazolo[3,4-b]pyridine-4-carboxamide], which IC50 is on record?
**A.** The IC50 was 705 nM.

**Q.** For COc1ccc(-c2cc(C(=O)NCc3c(C)cc(C)[nH]c3=O)c3c(C)nn(C(C)(C)C)c3n2)cc1 [Ex 121, 1-(1,1-Dimethylethyl)-N-[(4,6-dimethyl-2-oxo-1,2-dihydro-3-pyridinyl)methyl]-3-methyl-6-[4-(methyloxy)phenyl]-1H-pyrazolo[3,4-b]pyridine-4-carboxamide], which IC50 is on record?
**A.** Its IC50 is 407 nM.

**Q.** For Cc1cc(C)c(CNC(=O)c2cc(-c3ccnc(N4CCOCC4)c3)nc3c2cnn3C(C)C)c(=O)[nH]1 [Ex 66, N-[(4,6-Dimethyl-2-oxo-1,2-dihydro-3-pyridinyl)methyl]-1-(1-methylethyl)-6-[2-(4-morpholinyl)-4-pyridinyl]-1H-pyrazolo[3,4-b]pyridine-4-carboxamide], which IC50 is on record?
**A.** Its IC50 is 81 nM.

**Q.** With Cc1cc(C)c(CNC(=O)c2cc(C(C)(C)C)nc3c2c(C)nn3C(C)(C)C)c(=O)[nH]1 [Ex 118, 1,6-Bis(1,1-dimethylethyl)-N-[(4,6-dimethyl-2-oxo-1,2-dihydro-3-pyridinyl)methyl]-3-methyl-1H-pyrazolo[3,4-b]pyridine-4-carboxamide] as the compound, how does the IC50 read?
**A.** The IC50 was 273 nM.

**Q.** With CC(=O)Nc1ccc(-c2cc(C(=O)NCc3c(C)cc(C)[nH]c3=O)c3cnn(C(C)C)c3n2)cc1 [Ex 44, 6-[4-(acetylamino)phenyl]-N-[(4,6-dimethyl-2-oxo-1,2-dihydro-3-pyridinyl)methyl]-1-(1-methylethyl)-1H-pyrazolo[3,4-b]pyridine-4-carboxamide] as the compound, how does the IC50 read?
**A.** The IC50 was 74 nM.

**Q.** Which IC50 does the source give for Cc1cc(C)c(CNC(=O)c2cc(-c3ccccc3)nc3c2cnn3C(C)C)c(=O)[nH]1 [Ex 38, N-[(4,6-Dimethyl-2-oxo-1,2-dihydro-3-pyridinyl)methyl]-1-(1-methylethyl)-6-phenyl-1H-pyrazolo[3,4-b]pyridine-4-carboxamide] here?
**A.** The IC50 was 392 nM.

**Q.** Cc1cc(C2CCCCC2)c(CNC(=O)c2cc(C3CC3)nc3c2cnn3C(C)C)c(=O)[nH]1 [Ex 16, N-[(4-Cyclohexyl-6-methyl-2-oxo-1,2-dihydro-3-pyridinyl)methyl]-6-cyclopropyl-1-(1-methylethyl)-1H-pyrazolo[3,4-b]pyridine-4-carboxamide] was tested. Which IC50 did it give?
**A.** Its IC50 is 105 nM.

**Q.** With Cc1cc(C)c(CNC(=O)c2cc(-c3ccc4[nH]c(=O)[nH]c4c3)nc3c2c(C)nn3C(C)C)c(=O)[nH]1 [Ex 77, N-[(4,6-dimethyl-2-oxo-1,2-dihydro-3-pyridinyl)methyl]-3-methyl-1-(1-methylethyl)-6-(2-oxo-2,3-dihydro-1H-benzimidazol-5-yl)-1H-pyrazolo[3,4-b]pyridine-4-carboxamide] as the compound, how does the IC50 read?
**A.** The IC50 was 52 nM.

**Q.** For Cc1cc(C)c(CNC(=O)c2cc(C3CC3)nc3c2c(C)nn3C2CCOCC2)c(=O)[nH]1 [Ex 112, 6-Cyclopropyl-N-[(4,6-dimethyl-2-oxo-1,2-dihydro-3-pyridinyl)methyl]-3-methyl-1-(tetrahydro-2H-pyran-4-yl)-1H-pyrazolo[3,4-b]pyridine-4-carboxamide], which IC50 is on record?
**A.** The IC50 was 693 nM.

**Q.** With Cc1cc(C)c(CNC(=O)c2cc(-c3ccc(N(C)C)nc3)nc3c2cnn3C(C)C)c(=O)[nH]1 [Ex 41, 6-[6-(Dimethylamino)-3-pyridinyl]-N-[(4,6-dimethyl-2-oxo-1,2-dihydro-3-pyridinyl)methyl]-1-(1-methylethyl)-1H-pyrazolo[3,4-b]pyridine-4-carboxamide] as the compound, how does the IC50 read?
**A.** The IC50 was 86 nM.

**Q.** For CCCc1cc(C)c(CNC(=O)c2cc(-c3ccncc3)nc3c2cnn3C(C)C)c(=O)[nH]1 [Ex 9, 1-(1-Methylethyl)-N-[(4-methyl-2-oxo-6-propyl-1,2-dihydro-3-pyridinyl)methyl]-6-(4-pyridinyl)-1H-pyrazolo[3,4-b]pyridine-4-carboxamide], which IC50 is on record?
**A.** The IC50 was 1310 nM.

**Q.** With Cc1cc(C)c(CNC(=O)c2cc(-c3ccncc3)nc3c2cnn3C(C)C)c(=O)[nH]1 [Ex 114, N-[(4,6-Dimethyl-2-oxo-1,2-dihydro-3-pyridinyl)methyl]-1-(1-methylethyl)-6-(4-pyridinyl)-1H-pyrazolo[3,4-b]pyridine-4-carboxamide] as the compound, how does the IC50 read?
**A.** The IC50 was 199 nM.

**Q.** With Cc1cc(C)c(CNC(=O)c2cc(NC3CCOCC3)nc3c2cnn3C(C)C)c(=O)[nH]1 [Ex 54, N-[(4,6-Dimethyl-2-oxo-1,2-dihydro-3-pyridinyl)methyl]-1-(1-methylethyl)-6-(tetrahydro-2H-pyran-4-ylamino)-1H-pyrazolo[3,4-b]pyridine-4-carboxamide] as the compound, how does the IC50 read?
**A.** The IC50 was 514 nM.

**Q.** Cc1cc(C)c(CNC(=O)c2cc(-c3ccccc3)nc3c2c(Br)nn3C(C)C)c(=O)[nH]1 [Ex 123, 3-Bromo-N-[(4,6-dimethyl-2-oxo-1,2-dihydro-3-pyridinyl)methyl]-1-(1-methylethyl)-6-phenyl-1H-pyrazolo[3,4-b]pyridine-4-carboxamide] was tested. Which IC50 did it give?
**A.** Its IC50 is 218 nM.

**Q.** Cc1cc(C)c(CNC(=O)c2cc(-c3ccc4[nH]c(=O)[nH]c4c3)nc3c2cnn3C(C)C)c(=O)[nH]1 [Ex 80, N-[(4,6-Dimethyl-2-oxo-1,2-dihydro-3-pyridinyl)methyl]-1-(1-methylethyl)-6-(2-oxo-2,3-dihydro-1H-benzimidazol-5-yl)-1H-pyrazolo[3,4-b]pyridine-4-carboxamide] was tested. Which IC50 did it give?
**A.** Its IC50 is 71 nM.

**Q.** With Cc1cc(C)c(CNC(=O)c2cc(C3CC3)nc3c2c(C)nn3C(C)(C)C)c(=O)[nH]1 [Ex 107, 6-Cyclopropyl-1-(1,1-dimethylethyl)-N-[(4,6-dimethyl-2-oxo-1,2-dihydro-3-pyridinyl)methyl]-3-methyl-1H-pyrazolo[3,4-b]pyridine-4-carboxamide] as the compound, how does the IC50 read?
**A.** Its IC50 is 75 nM.
